This note sets out measurements from patent US20100227869A1, “ENANTIOPURE QUINUCLIDINYLOXY PYRIDAZINES AND THEIR USE AS NICOTINIC ACETYLCHOLINE RECEPTOR LIGANDS” (priority 2006, published 2010).

By melting point is commonly meant the temperature of the solid-liquid transition. With `C(#Cc1ccc(O[C@@H]2CN3CCC2CC3)nn1)c1ccccc1.O=C(O)/C=C/C(=O)O`, the melting point was 154.5 to 159.4 °C.

In turn, `C(#Cc1ccc(O[C@H]2CN3CCC2CC3)nn1)c1ccccc1.O=C(O)/C=C/C(=O)O` displayed a melting point of 151.3 to 157.3 °C.
